Columns and labels:
MN-negative cells (DLD1) = assay: Antibody internalization (Cellomics), DLD1; assay type: cell-based
MN = MN (Homo sapiens, UniProt Q16790); assay: Immunoprecipitation of biotinylated cell surface proteins; assay type: binding; design: incubated with cell lysates of MN+ (Pc3 mm2) and MN− (DLD-1) cell lines that had been selectively labeled with biotin; endogenous in cells; host or cells: PC-3 mm2 (MN+); DLD-1 as the MN- control; settings: Table 4 profile
Protocol: To further explore specificity, various candidate antibodies including the antibody portion of 3ee9/MMAE (3ee9) and the reference antibody G250 were incubated with cell lysates of MN+ (Pc3 mm2) and MN− (DLD-1) cell lines that had been selectively labeled with biotin. Complexes between the antibodies and cellular proteins were immuno-precipitated and the co-precipitated antigens visualized using immunoblots developed with enzyme-linked streptavidin.

[1] = test system: HCT-15 multi-drug resistant (P-gp) CRC xenograft; assay: HCT-15 multi-drug resistant xenograft model; assay type: in vivo, NCr nu/nu mice; settings: HCT-15 MDR model
Protocol: To examine the effect of 3ee9/MMAE in a multi-drug resistance model, female NCr nu/nu mice were implanted subcutaneously (s.c.) with 5×10^6 HCT-15 cells. HCT-15 is a multi-drug resistant (MDR) line that over-expresses P-glycoprotein (P-gp). […] 3ee9/MMAE, Taxol, and Gemcitabine were administered when mice had established tumors with mean weight of ˜150 mg. Gemcitabine, a pyrimidine analog that is not a P-gp substrate was used as a positive control.

[2] = test system: MN-expressing cells (PC3 mm2); assay: Antibody internalization (Cellomics), PC3 mm2; assay type: cell-based, human
[3] = test system: HT-29 human CRC xenograft; assay: HT-29 subcutaneous xenograft model; assay type: in vivo, athymic NCr (nu/nu) mice; settings: for TGI: end of dosing
Protocol: When tumors reached an average size of ˜120 mg (5 days), treatment was initiated. […] In addition, MMAE was assessed as a free drug at a dose of 0.1, 0.2 and 1 mg/kg. The 0.1 and 0.2 mg/Kg doses of MMAE represent equivalent amounts of this drug to those present on 5 and 10 mg/Kg 3ee9/MMAE respectively.
Anti-tumor effect of 3ee9/MMAE was also assessed in varying schedules, i.e., once a week dosing for total of two doses (Q7Dx2, FIG. 20) and a single dose at the time of staging (Q1Dx1, FIG. 21). In both schedules, 3ee9/MMAE was dosed at 0.625, 1.25, 2.5, 5 and 10 mg/kg.

3ee9/MMAE: human anti-MN IgG1 antibody 3ee9 conjugated to Monomethylauristatin E (MMAE)
internalization (MN-negative cells (DLD1)): not by MN-negative cells (DLD1) | Immunoprecipitation (MN): specific | anti-tumor effect [1]: failed to produce any significant anti-tumor effect | internalization [2]: selectively internalized | TGI ([3]; HT-29, 0.625 mg/kg Q4Dx3): 54% | % Inhibition (1-T/D)*100 (Day 18) ([3]; HT-29, 0.625 mg/kg, Q1D × 1): 42% | Percent Regressions ([3]; HT-29, 0.625 mg/kg, Q1D × 1): 0% | % Inhibition (1-T/D)*100 (Day 18) ([3]; HT-29, 0.625 mg/kg, Q4D × 3): 54% | Percent Regressions ([3]; HT-29, 0.625 mg/kg, Q4D × 3): 0% | % Inhibition (1-T/D)*100 (Day 18) ([3]; HT-29, 0.625 mg/kg, Q7D × 2): 48% | Percent Regressions ([3]; HT-29, 0.625 mg/kg, Q7D × 2): 0% | animals showing regressions ([3]; HT-29, 1.25 mg/kg Q4Dx3): 20% | TGI ([3]; HT-29, 1.25 mg/kg Q4Dx3): 72% | % Inhibition (1-T/D)*100 (Day 18) ([3]; HT-29, 1.25 mg/kg, Q1D × 1): 48% | Percent Regressions ([3]; HT-29, 1.25 mg/kg, Q1D × 1): 0% | % Inhibition (1-T/D)*100 (Day 18) ([3]; HT-29, 1.25 mg/kg, Q4D × 3): 72% | Percent Regressions ([3]; HT-29, 1.25 mg/kg, Q4D × 3): 2% | % Inhibition (1-T/D)*100 (Day 18) ([3]; HT-29, 1.25 mg/kg, Q7D × 2): 71% | Percent Regressions ([3]; HT-29, 1.25 mg/kg, Q7D × 2): 0% | regressions ([3]; HT-29, 2.5 mg/kg Q4Dx3): 90% | TGI ([3]; HT-29, 2.5 mg/kg Q4Dx3): 97% | % Inhibition (1-T/D)*100 (Day 18) ([3]; HT-29, 2.5 mg/kg, Q1D × 1): 93% | Percent Regressions ([3]; HT-29, 2.5 mg/kg, Q1D × 1): 5% | % Inhibition (1-T/D)*100 (Day 18) ([3]; HT-29, 2.5 mg/kg, Q4D × 3): 97% | Percent Regressions ([3]; HT-29, 2.5 mg/kg, Q4D × 3): 9% | % Inhibition (1-T/D)*100 (Day 18) ([3]; HT-29, 2.5 mg/kg, Q7D × 2): 92% | TGI ([3]; HT-29, 5 mg/kg Q4Dx3): 100% | % Inhibition (1-T/D)*100 (Day 18) ([3]; HT-29, 5 mg/kg, Q1D × 1): 98% | Percent Regressions ([3]; HT-29, 5 mg/kg, Q1D × 1): 8% | % Inhibition (1-T/D)*100 (Day 18) ([3]; HT-29, 5 mg/kg, Q4D × 3): 100% | Percent Regressions ([3]; HT-29, 5 mg/kg, Q4D × 3): 10% | % Inhibition (1-T/D)*100 (Day 18) ([3]; HT-29, 5 mg/kg, Q7D × 2): 96% | Percent Regressions ([3]; HT-29, 5 mg/kg, Q7D × 2): 7% | TGI ([3]; HT-29, 10 mg/kg Q4Dx3): 100% | % Inhibition (1-T/D)*100 (Day 18) ([3]; HT-29, 10 mg/kg, Q1D × 1): 100% | Percent Regressions ([3]; HT-29, 10 mg/kg, Q1D × 1): 10% | % Inhibition (1-T/D)*100 (Day 18) ([3]; HT-29, 10 mg/kg, Q4D × 3): 100% | Percent Regressions ([3]; HT-29, 10 mg/kg, Q4D × 3): 10% | % Inhibition (1-T/D)*100 (Day 18) ([3]; HT-29, 10 mg/kg, Q7D × 2): 100% | Percent Regressions ([3]; HT-29, 10 mg/kg, Q7D × 2): 10% | tolerability ([3]; HT-29, 0.625 to 10 mg/kg i.v. Q4Dx3): well tolerated at all doses examined | responses ([3]; HT-29, 5 and 10 mg/kg Q4Dx3): 100% | anti-tumor effect in varying schedules ([3]; HT-29, Q7Dx2 and Q1Dx1, 0.625 to 10 mg/kg): highly effective in inhibiting the growth | anti-tumor effects ([3]; HT-29 human colo-rectal cancer xenograft model): anti-tumor effects were seen
